Measurements as given in PubChem BioAssay (NCI).
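Briefly, cells in 96-well plates were exposed to five compound concentrations for 48 h, and endpoints were estimated by linear interpolation. GI50 marks 50% less growth. At the TGI there is no net growth.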

Experiments:
Assay in all cases: growth of human tumour cells (NCI), 48 h
HS 578T breast = test system: HS 578T breast
SK-MEL-5 melanoma = test system: SK-MEL-5 melanoma
786-0 renal = test system: 786-0 renal
COLO 205 colon = test system: COLO 205 colon
A549 NSCLC = test system: A549 NSCLC
KM12 colon = test system: KM12 colon
MOLT-4 leukemia = test system: MOLT-4 leukemia
A498 renal = test system: A498 renal
HOP-92 NSCLC = test system: HOP-92 NSCLC
CCRF-CEM leukemia = test system: CCRF-CEM leukemia

Row | Structure (SMILES) | TGI (HS 578T breast) | TGI (SK-MEL-5 melanoma) | TGI (786-0 renal) | TGI (COLO 205 colon) | TGI (A549 NSCLC) | TGI (KM12 colon) | TGI (MOLT-4 leukemia) | TGI (A498 renal) | TGI (HOP-92 NSCLC) | TGI (CCRF-CEM leukemia) | GI50 (CCRF-CEM leukemia)
1 | CC(C)(C)OC(=O)n1c(Cl)c(C=O)c2ccccc21 | > 100 µM | > 100 µM | 46.6 µM | > 100 µM | > 100 µM | 39.2 µM | > 100 µM | > 100 µM | 56.8 µM | 79.4 µM | 
2 | OC1(c2ccc(Cl)cc2)c2c(c3ccccc3c3ccccc23)C2=NCCN21 (stereo unspecified) | 18.6 µM | > 100 µM | 15.2 µM | > 100 µM | 59 µM | 47.8 µM | > 100 µM | 43.7 µM | 49.4 µM | > 100 µM | 
3 | COc1ccc(N2N=NN(C(C)C)/C2=C(/Cl)c2nnnn2-c2ccc(OC)cc2)cc1 | 52.6 µM | 28.7 µM | 7.06 µM | 13.1 µM | 33.6 µM | 31.3 µM | 14.8 µM | 30.5 µM | 6.19 µM | 4.24 µM | 
4 | Cn1c(COC(=O)NC2CCCCC2)c(COC(=O)NC2CCCCC2)c2ccc3cc(C=O)ccc3c21 | > 100 µM | > 100 µM | > 100 µM | > 100 µM | > 100 µM | > 100 µM | > 100 µM | > 100 µM | > 100 µM | > 100 µM | 
5 | Nc1ccccc1OCCCOc1ccccc1N | > 100 µM | > 100 µM | > 100 µM | > 100 µM | > 100 µM | > 100 µM | > 100 µM | > 100 µM | > 100 µM | > 100 µM | 
6 | Cc1cn([C@@H]2C[C@H](CO)[C@@H]2O)c(=O)[nH]c1=O | > 100 µM | > 100 µM | > 100 µM | > 100 µM | > 100 µM | > 100 µM | > 100 µM | > 100 µM | > 100 µM | > 100 µM | 
7 | O=C(CSCC(=O)N/N=C\c1ccccc1F)N/N=C\c1ccccc1F | > 100 µM | > 100 µM | > 100 µM | > 100 µM | > 100 µM | > 100 µM | > 100 µM | > 100 µM | > 100 µM | > 100 µM | 
8 | COc1cc(/C=C/C(=N\NC(=S)NN)c2sc(NNC(C)=O)nc2C)ccc1O | > 100 µM | > 100 µM | > 100 µM | > 100 µM | > 100 µM | > 100 µM | > 100 µM | > 100 µM | > 100 µM | > 100 µM | 
9 | CCN(CC)c1ccc2cc(C(N)=O)c(=Nc3ccc(F)cc3)oc2c1 | > 100 µM | > 100 µM | > 100 µM | > 100 µM | > 100 µM | > 100 µM | > 100 µM | > 100 µM | > 100 µM | > 100 µM | 
10 | CO[C@]12CC(=O)C3(C(C[C@H]4CC5CC[C@H]6C[C@@H](OC(C)=O)CC[C@]6(OC(C)=O)C5C[C@@]43C)C1)C1C[C@H]3[C@@H]4CC[C@H]5C[C@@H](OC(C)=O)CC[C@]5(OC(C)=O)[C@H]4CC[C@]3(C)C12 (stereo partly specified) | > 100 µM | > 100 µM | > 100 µM | > 100 µM | > 100 µM | > 100 µM | > 100 µM | > 100 µM | > 100 µM | > 100 µM | 
11 | O=C1O[C@H]2C3C4CCC(C4[C@@H]2I)[C@H]13 (stereo partly specified) | > 100 µM | > 100 µM | > 100 µM | > 100 µM | > 100 µM | > 100 µM | > 100 µM | > 100 µM | > 100 µM | > 100 µM | 
12 | N#Cc1c(N2CCCC2)nsc1Nc1ccc(F)cc1 | > 100 µM | > 100 µM | > 100 µM | > 100 µM | > 100 µM | > 100 µM | > 100 µM | > 100 µM | > 100 µM | > 100 µM | 
13 | COc1cc(S(=O)(=O)Nc2ccc(-c3csc(N4C(=O)C(C)SC4c4ccccc4)n3)cc2)ccc1Cl (stereo unspecified) | > 100 µM | > 100 µM | > 100 µM | > 100 µM | > 100 µM | > 100 µM | > 100 µM | > 100 µM | > 100 µM | > 100 µM | 
14 | CN(/N=C/c1ccc(Cl)cc1)C1=NCCCCN1 | > 100 µM | > 100 µM | > 100 µM | > 100 µM | > 100 µM | > 100 µM | > 100 µM | > 100 µM | > 100 µM | > 100 µM | 
15 | CC(=O)O[C@H]1C[C@](C)(O)[C@@]23CC([C@@H](OC(=O)C(C)(C)O)[C@@H](OC(C)=O)C2(COC(=O)c2ccccc2)[C@H]1OC(C)=O)C(C)(C)O3 (stereo partly specified) | > 100 µM | > 100 µM | > 100 µM | > 100 µM | > 100 µM | > 100 µM | > 100 µM | > 100 µM | > 100 µM | > 100 µM | 
16 | CC(=O)OCC1OC(n2c(N)c(C#N)c(-c3cccc(Cl)c3)c(C#N)c2=S)C(OC(C)=O)C(OC(C)=O)C1OC(C)=O (stereo unspecified) | 91.5 µM | 30.3 µM | 60.5 µM | 29.7 µM | > 100 µM | 38.9 µM | 51.5 µM | 45.5 µM | > 100 µM | > 100 µM | 
17 | O=C1C=C(O)c2c(O)ccc(O)c2C1=O | > 100 µM | > 100 µM | > 100 µM | > 100 µM | > 100 µM | > 100 µM | > 100 µM | > 100 µM | > 100 µM | > 100 µM | 

Row | Structure (SMILES) | TGI (HS 578T breast) | TGI (SK-MEL-5 melanoma) | TGI (786-0 renal) | TGI (COLO 205 colon) | TGI (A549 NSCLC) | TGI (KM12 colon) | TGI (MOLT-4 leukemia) | TGI (A498 renal) | TGI (HOP-92 NSCLC) | TGI (CCRF-CEM leukemia) | GI50 (CCRF-CEM leukemia)
18 | O=C(c1ccccc1)c1c(C(F)(F)F)n([O-])c2cc(F)c(F)cc2[n+]1=O | 2.48 µM | 3.33 µM | 1.03 µM | > 69.6 µM | 8.34 µM | 3.9 µM | 1.97 µM | 7.19 µM | 0.324 µM | > 100 µM | 8.72 µM
19 | CN(C)C=NCC(O)c1ccccc1 (stereo unspecified) | > 100 µM | > 100 µM | > 100 µM | > 100 µM | > 100 µM | > 100 µM | > 100 µM | > 100 µM | > 100 µM | > 100 µM | 
20 | COc1ccc(Cn2c3ccc([N+](=O)[O-])cc3c(=O)n2Cc2ccccn2)cc1 | > 100 µM | 83.9 µM | > 100 µM | > 100 µM | > 100 µM | > 100 µM | > 100 µM | > 100 µM | > 100 µM | > 100 µM | 
21 | COC12C=CC(CC1)C(C)(C)C2OS(C)(=O)=O (stereo unspecified) | > 100 µM | > 100 µM | > 100 µM | > 100 µM | > 100 µM | > 100 µM | > 100 µM | > 100 µM | > 100 µM | > 100 µM | 
22 | S=C(N/N=C(\C(=N/NC(=S)N1CCCCC1)c1ccccn1)c1ccccn1)N1CCCCC1 | > 100 µM | > 100 µM | > 100 µM | > 100 µM | > 100 µM | > 100 µM | > 100 µM | 90.1 µM | > 100 µM | 57.4 µM | 
23 | CC(C)=CCC[C@@H](C)C1=CC(=O)C(C)=C(O)C1=O | 21.1 µM | 16.4 µM | 17.5 µM | 28.3 µM | 25 µM | 16.1 µM | > 23.5 µM | 34.9 µM | 7.18 µM | 3.9 µM | 
24 | O=c1c2cc(I)ccc2nc(SCc2nnco2)n1Cc1ccccc1 | > 100 µM | > 100 µM | > 100 µM | > 100 µM | > 100 µM | > 100 µM | 47.4 µM | > 100 µM | > 100 µM | 62.9 µM | 
25 | CN1C=COC1N=C1CCCCC1 (stereo unspecified) | > 100 µM | > 100 µM | > 100 µM | > 100 µM | > 100 µM | > 100 µM | > 100 µM | > 100 µM | > 100 µM | > 100 µM | 
26 | COc1ccc(C2C(C#N)=C(S)N(C3OC(CO)C(O)C(O)C3O)C(C)=C2C(C)=O)cc1 (stereo unspecified) | > 100 µM | > 100 µM | > 100 µM | > 100 µM | > 100 µM | > 100 µM | > 100 µM | > 100 µM | > 100 µM | > 100 µM | 
27 | CCn1c(=O)c2c3ccc(OC)cc3[nH]c2c2ccc(OC)cc21 | > 100 µM | > 100 µM | > 100 µM | > 100 µM | > 100 µM | > 100 µM | > 100 µM | > 100 µM | > 100 µM | > 100 µM | 
28 | CCOC(=O)C(NC(=O)CC)(Nc1ccc(S(=O)(=O)Nc2ccc(OC)nn2)cc1)C(F)(F)F (stereo unspecified) | > 100 µM | > 100 µM | > 100 µM | > 100 µM | > 100 µM | > 100 µM | > 100 µM | > 100 µM | > 100 µM | > 100 µM | 
29 | O=C(N[C@H]1CCC[C@H]1C(=O)Nc1ccc(C(F)(F)F)cc1)OCc1ccccc1 | > 100 µM | > 100 µM | > 100 µM | > 100 µM | > 100 µM | > 100 µM | > 100 µM | > 100 µM | > 100 µM | > 100 µM | 
30 | CC(=O)OCC1OC(SC2=NC(=O)/C(=C/c3ccccc3)S2)C(OC(C)=O)C(OC(C)=O)C1OC(C)=O (stereo unspecified) | 75.7 µM | 42.8 µM | 30.8 µM | > 100 µM | > 100 µM | > 100 µM | 54.5 µM | 81.2 µM | 44.2 µM | 94.4 µM | 
31 | COc1cc([C@@H]2c3cc4c(cc3[C@@H](c3c(O)cc(O)c5c3O[C@H](c3ccc(O)c(O)c3)[C@H](OC(=O)c3cc(O)c(O)c(O)c3)C5)[C@H]3COC(=O)[C@H]23)OCO4)cc(OC)c1O | > 100 µM | 78.4 µM | > 100 µM | 84.1 µM | 99.2 µM | > 100 µM | > 100 µM | > 100 µM | > 100 µM | 59 µM | 
32 | CC1C(C#N)(C#N)C(C#N)=C(N)C1(C)[N+](=O)[O-] (stereo unspecified) | > 100 µM | > 100 µM | > 100 µM | > 100 µM | > 100 µM | > 100 µM | > 100 µM | > 100 µM | 8.96 µM | > 100 µM | 
33 | CC(=O)c1ccc2c3c1O[C@H]1c4[nH]c5ccccc5c4C[C@@]4(O)[C@@H](C2)N(CC2CC2)CC[C@]314 | 15.2 µM | 31.8 µM | 28.3 µM | 30.8 µM | 21.3 µM | 37.6 µM | 47.6 µM | 16.1 µM | 28.2 µM | 28.2 µM | 
34 | Cc1ccc(N=C2SC(=NN(C)C)SC2=Nc2ccc(C)cc2)cc1 | > 100 µM | > 100 µM | > 100 µM | > 100 µM | > 100 µM | > 100 µM | > 100 µM | > 100 µM | > 100 µM | > 100 µM | 
